Measured values published in ChEMBL document CHEMBL4376831, “Enhancing the Cell Permeability of Stapled Peptides with a Cyclic Cell-Penetrating Peptide” (J Med Chem, 2019).
Blank lines part the entries; values can stand above or below the molecule they belong to. Active and inactive are the calls of the source. The rule behind the calls is not given here. *1 amine or outer side, *2 acyl side, *3 side chain or, on linkers, in order; H or OH if unused. Where a SMILES comes first, the peptide text is derived from it. Bridges are numbered along the chain shown (N, C = ends). Roman numbers before positions name the chains, in order. [ ]: non-standard residue; d: D form. The star is where a group is joined. X2 = O=C(O)c1cc(C(=O)*)ccc1-c1c2ccc3cc(O)ccc3c2oc2c1ccc1cc(=O)ccc12; 2Nal = N[C@@H](Cc1ccc2ccccc2c1)C(=O)O; mXylylene = c1cc(C[*:1])cc(C[*:2])c1; AEEA = NCCOCCOCC(=O)O; βAla = NCCC(=O)O

Key:
[1] = system: SW480; assay: Antiproliferative activity against human SW480 cells incubated for 72 hrs by MTT assay; assay type: functional, cell-based; conditions: SW480, 72 h
[2] = system: MCF7; assay: Antiproliferative activity against human MCF7 cells incubated for 72 hrs by MTT assay; assay type: functional, cell-based
[3] = system: SJSA-1; conditions: Homo sapiens
[4] = system: HeLa; assay: Induction of cell membrane disruption in human HeLa cells incubated for 4 hrs using FAM-labeled compound by LDH assay; assay type: cell-based
[5] = system: HeLa; assay: Cytotoxicity against human HeLa cells incubated for 72 hrs using FAM-labeled compound by MTT assay; assay type: cell-based
[6] = system: SJSA-1; assay: Antiproliferative activity against human SJSA1 cells expressing wild-type p53 upto 20 uM incubated for 72 hrs by MTT assay; assay type: functional, cell-based
[7] = system: HeLa; assay: Induction of apoptosis in human HeLa cells expressing wild-type p53 at =< 10 uM incubated for 48 hrs by Annexin V/propidium iodide-staining based flow cytometric analysis relative to control; assay type: functional
[8] = system: HCT-116; assay: Induction of apoptosis in human HCT116 cells expressing wild-type p53 at =< 10 uM incubated for 48 hrs by Annexin V/propidium iodide-staining based flow cytometric analysis relative to control; assay type: functional
[9] = system: HeLa; assay: Induction of cell membrane disruption in human HeLa cells expressing wild-type p53 at =>20 uM incubated for 4 hrs by LDH assay relative to control; assay type: functional
[10] = system: SJSA-1; assay: cells; conditions: Homo sapiens, SJSA-1, 72 h
[11] = system: HCT-116; assay: Induction of cell membrane disruption in human HCT116 cells expressing wild-type p53 at =>20 uM incubated for 4 hrs by LDH assay relative to control; assay type: functional
[12] = system: MCF7; assay: Induction of cell membrane disruption in human MCF7 cells expressing wild-type p53 at =>20 uM incubated for 4 hrs by LDH assay relative to control; assay type: functional
[13] = system: SJSA-1; assay: Induction of apoptosis in human SJSA1 cells at 10 uM incubated for 48 hrs by Annexin V/propidium iodide-staining based flow cytometric analysis; assay type: functional, cell-based
[14] = system: MCF7; assay: Induction of apoptosis in human MCF7 cells expressing wild-type p53 at =< 10 uM incubated for 48 hrs by Annexin V/propidium iodide-staining based flow cytometric analysis relative to control; assay type: functional
[15] = Permeability of the compound in human HeLa cells at 5 uM incubated for 2 hrs by flow cytometric analysis relative to CPP9; assay type: ADME, cell-based

SMILES: CC(=O)N[C@@H](Cc1ccc(O)cc1)C(=O)NCC(=O)N[C@@H](CCCNC(=N)N)C(=O)N[C@@H](CCCCN)C(=O)N[C@@H](CCCCN)C(=O)N[C@@H](CCCNC(=N)N)C(=O)N[C@@H](CCCNC(=N)N)C(=O)N[C@@H](CCC(N)=O)C(=O)N[C@@H](CCCNC(=N)N)C(=O)N[C@@H](CCCNC(=N)N)C(=O)N[C@@H](CCCNC(=N)N)C(=O)NCCCC[C@H](NC(=O)COCCOCCNC(=O)[C@H](CO)NC(=O)[C@@H](NC(=O)[C@H](CC(C)C)NC(=O)[C@H](CCC(N)=O)NC(=O)[C@@H]1CCCCNC(=O)C[C@H](NC(=O)[C@H](Cc2ccccc2)NC(=O)[C@@H](NC(=O)[C@H](CC(C)C)NC(C)=O)[C@@H](C)O)C(=O)N[C@@H](Cc2cnc[nH]2)C(=O)N[C@@H](Cc2ccc(O)cc2)C(=O)N[C@@H](Cc2c[nH]c3ccccc23)C(=O)N1)[C@@H](C)O)C(N)=O
Activity [3]: inactive | Activity [4]: Toxic | Activity [5]: Toxic

SMILES: CC(=O)N[C@@H](CCCNC(=N)N)C(=O)N[C@@H](CCCNC(=N)N)C(=O)N[C@@H](CCCNC(=N)N)C(=O)N[C@@H](CCCNC(=N)N)C(=O)N[C@@H](CCCNC(=N)N)C(=O)N[C@@H](CCCNC(=N)N)C(=O)N[C@@H](CCCNC(=N)N)C(=O)N[C@@H](CCCNC(=N)N)C(=O)N[C@@H](CCCNC(=N)N)C(=O)NCCCC[C@H](NC(=O)COCCOCCNC(=O)[C@H](CO)NC(=O)[C@@H](NC(=O)[C@H](CC(C)C)NC(=O)[C@H](CCC(N)=O)NC(=O)[C@@H]1CCCCNC(=O)C[C@H](NC(=O)[C@H](Cc2ccccc2)NC(=O)[C@@H](NC(=O)[C@H](CC(C)C)NC(C)=O)[C@@H](C)O)C(=O)N[C@@H](Cc2cnc[nH]2)C(=O)N[C@@H](Cc2ccc(O)cc2)C(=O)N[C@@H](Cc2c[nH]c3ccccc23)C(=O)N1)[C@@H](C)O)C(N)=O
Activity [3]: inactive | Activity [4]: Toxic | Activity [5]: Toxic

SMILES: CC(=O)N[C@@H](CC(C)C)C(=O)N[C@H](C(=O)N[C@@H](Cc1ccccc1)C(=O)N[C@H]1CC(=O)NCCCC[C@@H](C(=O)N[C@@H](CCC(N)=O)C(=O)N[C@@H](CC(C)C)C(=O)N[C@H](C(=O)N[C@@H](CO)C(=O)NCCOCCOCC(=O)N[C@@H](CCCCN)C(N)=O)[C@@H](C)O)NC(=O)[C@H](Cc2c[nH]c3ccccc23)NC(=O)[C@H](Cc2ccc(O)cc2)NC(=O)[C@H](Cc2cnc[nH]2)NC1=O)[C@@H](C)O (Ac-LTFDHYWKQLTS[AEEA]K-NH2; lactam 4-8)
Activity [6]: inactive

SMILES: CC(=O)N[C@@H](CC(C)C)C(=O)N[C@H](C(=O)N[C@@H](Cc1ccccc1)C(=O)N[C@H]1CC(=O)NCCCC[C@@H](C(=O)N[C@@H](CCC(N)=O)C(=O)N[C@@H](CC(C)C)C(=O)N[C@H](C(=O)N[C@@H](CO)C(=O)NCCOCCOCC(=O)N[C@@H](CCCCNC(=O)CC[C@@H]2NC(=O)[C@@H](CCCNC(=N)N)NC(=O)[C@H](CCCNC(=N)N)NC(=O)[C@@H](CCCNC(=N)N)NC(=O)[C@H](CCCNC(=N)N)NC(=O)[C@H](Cc3ccc4ccccc4c3)NC(=O)[C@@H](Cc3ccccc3)NC2=O)C(N)=O)[C@@H](C)O)NC(=O)[C@H](Cc2c[nH]c3ccccc23)NC(=O)[C@H](Cc2ccc(O)cc2)NC(=O)[C@H](Cc2cnc[nH]2)NC1=O)[C@@H](C)O (I: Ac-LTFDHYWKQLTS[AEEA]K-NH2 / II: cyclo([2Nal]R[dR]R[dR]E[dF]); lactam I:4-I:8; amide I:14-II:6)
Activity [7]: 5 - 50% | Activity [8]: 5 - 50% | Activity [3]: Dose-dependent effect | Activity [9]: 100% | EC50 [10]: 3.8 µM | Activity [11]: 100% | Activity [12]: 100% | Activity [13]: Active | Activity [14]: 5 - 50% | Activity [4]: Toxic | Activity [5]: Toxic

Second part, led by results:

IC50 [1]: > 20 µM
SMILES: CC[C@H](C)[C@@H]1NC(=O)[C@@H](NC(=O)[C@H](CCC(=O)O)NC(=O)[C@@H]2CCCN2C(=O)[C@H](Cc2ccc(O)cc2)NC(=O)CNC(=O)CNC(C)=O)CC(=O)NCCCC[C@@H](C(=O)N[C@@H](Cc2cnc[nH]2)C(=O)N[C@@H](CC(C)C)C(=O)N[C@@H](CCC(N)=O)C(=O)N[C@@H](CCCNC(=N)N)C(=O)N[C@H](C(=O)N[C@H](C(=O)N[C@@H](CC(C)C)C(=O)NCCOCCOCC(=O)NCCOCCOCC(=O)N[C@@H](CNC(=O)[C@H](CCCNC(=N)N)NC(=O)[C@H](CCCNC(=N)N)NC(=O)[C@H](CCCNC(=N)N)NC(=O)[C@H](CCCNC(=N)N)NC(=O)[C@H](CCCNC(=N)N)NC(=O)[C@H](CCCNC(=N)N)NC(=O)[C@H](CCCNC(=N)N)NC(=O)[C@H](CCCNC(=N)N)NC(=O)[C@H](CCCNC(=N)N)NC(C)=O)C(N)=O)[C@@H](C)CC)C(C)C)NC(=O)[C@H](CC(=O)O)NC(=O)[C@H](CC(C)C)NC1=O
Activity [2]: Active

IC50 [1]: > 20 µM
SMILES: CC[C@H](C)[C@@H]1NC(=O)[C@@H](NC(=O)[C@H](CCC(=O)O)NC(=O)[C@@H]2CCCN2C(=O)[C@H](Cc2ccc(O)cc2)NC(=O)CNC(=O)CNC(C)=O)CC(=O)NCCCC[C@@H](C(=O)N[C@@H](Cc2cnc[nH]2)C(=O)N[C@@H](CC(C)C)C(=O)N[C@@H](CCC(N)=O)C(=O)N[C@@H](CCCNC(=N)N)C(=O)N[C@H](C(=O)N[C@H](C(=O)N[C@@H](CC(C)C)C(=O)NCCOCCOCC(=O)NCCOCCOCC(=O)N[C@@H](CNC(=O)[C@H](CCCNC(=N)N)NC(=O)[C@H](CCCNC(=N)N)NC(=O)[C@H](CCCNC(=N)N)NC(=O)[C@H](CCC(N)=O)NC(=O)[C@H](CCCNC(=N)N)NC(=O)[C@H](CCCNC(=N)N)NC(=O)[C@H](CCCCN)NC(=O)[C@H](CCCCN)NC(=O)[C@H](CCCNC(=N)N)NC(=O)CNC(=O)[C@H](Cc2ccc(O)cc2)NC(C)=O)C(N)=O)[C@@H](C)CC)C(C)C)NC(=O)[C@H](CC(=O)O)NC(=O)[C@H](CC(C)C)NC1=O
Activity [2]: Active

permeability [15]: 2.5%
SMILES: CC[C@H](C)[C@@H]1NC(=O)[C@@H](NC(=O)[C@H](CCC(=O)O)NC(=O)[C@@H]2CCCN2C(=O)[C@H](CC(N)=O)NC(=O)[C@H](CCC(=O)O)NC(=O)CCNC(=O)c2ccc(-c3c4ccc5cc(O)ccc5c4oc4c3ccc3cc(=O)ccc34)c(C(=O)O)c2)CSCc2cccc(c2)CSC[C@@H](C(=O)N[C@@H](Cc2cnc[nH]2)C(=O)N[C@H](C(=O)N[C@@H](CCC(N)=O)C(=O)N[C@@H](CCCNC(=N)N)C(=O)N[C@H](C(=O)N[C@@H](CCSC)C(N)=O)C(C)C)C(C)C)NC(=O)[C@H](CC(=O)O)NC(=O)[C@H](CC(C)C)NC1=O ({X2-βAla}-ENPECILDCHVQRVM-NH2; linker 5-9 via mXylylene)

permeability [15]: 8.9%
SMILES: CC[C@H](C)[C@@H]1NC(=O)[C@@H](NC(=O)[C@H](CCC(=O)O)NC(=O)[C@@H]2CCCN2C(=O)[C@H](CC(N)=O)NC(=O)CCNC(=O)c2ccc(-c3c4ccc5cc(O)ccc5c4oc4c3ccc3cc(=O)ccc34)c(C(=O)O)c2)CSCc2cccc(c2)CSC[C@@H](C(=O)N[C@@H](Cc2cnc[nH]2)C(=O)N[C@H](C(=O)N[C@@H](CCC(N)=O)C(=O)N[C@@H](CCCNC(=N)N)C(=O)N[C@H](C(=O)N[C@@H](CCSC)C(N)=O)C(C)C)C(C)C)NC(=O)[C@H](CC(=O)O)NC(=O)[C@H](CC(C)C)NC1=O ({X2-βAla}-NPECILDCHVQRVM-NH2; linker 4-8 via mXylylene)

EC50 [10]: 4.2 µM
SMILES: COc1ccc(C2=N[C@@H](c3ccc(Cl)cc3)[C@@H](c3ccc(Cl)cc3)N2C(=O)N2CCNC(=O)C2)c(OC(C)C)c1 [NUTLIN-3]
